We go through three compounds from patent US11931376B1, “Methods for the treatment of chronic kidney disease” (RENATUS INC., priority 2022, dated 2024).

Molecules are shown by their SMILES.

Data set [1] has as its system macrophage cell line (Raw264.7). Kind of data set: Cell viability assay (CCK-8). The class given is cell-based. The following applies: cyclodextrin 20 mg/ml, 24 hours, 37° C. As to the method: The cells were seeded in a 96-well plate at a density of 5×10^4 cells and 24 hours later cyclodextrin were treated at a concentration of 20 mg/ml for 24 hours at 37° C. CCK-8 agent was added, 10 μl per well. After 3 hours, absorbance at 450 nm was measured to assess cellular viability.

The subject of a further data set is Murine mesangial cells. Kind of data set: Cholesterol efflux in kidney mesangial cells (flow cytometry). The format is cell-based, C57BL/6 mice. The following applies: mesangial cells loaded with NBD-CC for 3 hours, cyclodextrin 5 mg/ml. The procedure:
Murine mesangial cells derived from the kidney of wild-type C57BL/6 mice were maintained in DMEM, 10% fetal bovine serum (FBS), 100 U/ml penicillin G, 100 μg/ml streptomycin, and 2 mM L-glutamine. The cells were seeded at a density of 10^6 cells/well one day before treatment with NBD-CC. The cells were treated with 100 μg of NBD-CC per 10^6 cells for 3 hours and then washed thoroughly twice. Then, cyclodextrins were treated at a concentration of 5 mg/ml. For the assessment of cholesterol efflux and efflux-mediating proteins ABCA1 and ABCG1, flow cytometry was performed.
Background: Flow cytometry measures light scatter and fluorescence of single cells or particles in a stream.

Another data set deals with albuminuria. The data set can be described thus: Albuminuria in diabetic kidney disease mouse model. The class given is in vivo, db/db mice. The following applies: subcutaneous 2 g/kg twice a week for 4 weeks. The procedure:
To investigate the effects of cyclodextrins on albuminuria, 8-week-old male db/db mice were used to model diabetes type II, which is susceptible to albuminuria. In the experimental setup, Oligo-GCD (4103 Da), Oligo-HPGCD (3825 Da) and HPBCD-B were subcutaneously injected at a dose of 2 g/kg twice a week for 4 weeks. Control mice were given PBS only. After the treatment is completed, 24-hour urine samples were collected and the concentration of albumin in the urine was measured (FIG. 8A).

For data set [2], the system named is red blood cells (whole blood). Kind of data set: Hemolysis assay. The format is cell-based, C57/BL6 mice. To be noted: cyclodextrin 50 mg/ml, 1 hour, 37° C., absorbance at 540 nm. As to the method:
Whole blood from wilt-type C57/BL6 mice was used for assessment of hemolytic activity of cyclodextrins. The whole blood samples (300 μl) were mixed with each cyclodextrin at a concentration of 50 mg/ml and incubated for 1 hour at 37° C. After centrifugation at 3,000 g for 5 minutes, the absorbance at 540 nm of the supernatant was measured.

In the case of `CC(O)COC[C@H]1O[C@@H]2O[C@H]3[C@H](O)[C@@H](O)[C@@H](O[C@H]4[C@H](O)[C@@H](O)[C@@H](O[C@H]5[C@H](O)[C@@H](O)[C@@H](O[C@H]6[C@H](O)[C@@H](O)[C@@H](O[C@H]7[C@H](O)[C@@H](O)[C@@H](O[C@H]8[C@H](O)[C@@H](O)[C@@H](O[C@H]1[C@H](O)[C@H]2O)O[C@@H]8COCC(C)O)O[C@@H]7COCC(C)O)O[C@@H]6COCC(C)O)O[C@@H]5COCC(C)O)O[C@@H]4COCC(C)O)O[C@@H]3COCC(C)O` (single isomer, unassigned) [HPBCD-B, hydroxypropyl-beta-cyclodextrin], the cell viability entry in data set [1] is given as “induce cell viability loss”. The cellular cholesterol content in the data set with Murine mesangial cells was 48.2%. The “ACR reduction compared to control” value in the data set with albuminuria stood at 22.6%. Also, in the data set on albuminuria (urine at end of week 4), the “albumin/creatinine ratio (ACR)” value came out at 190.9 µg/mg. In addition, the hemolytic activity entry in data set [2] was “disrupt the plasma membrane and induce hemolysis”.
`CC(O)COC[C@H]1O[C@@H]2O[C@H]3[C@H](O)[C@@H](O)[C@@H](O[C@H]4[C@H](O)[C@@H](O)[C@@H](O[C@H]5[C@H](O)[C@@H](O)[C@@H](O[C@H]6[C@H](O)[C@@H](O)[C@@H](O[C@H]7[C@H](O)[C@@H](O)[C@@H](O[C@H]8[C@H](O)[C@@H](O)[C@@H](O[C@H]1[C@H](O)[C@H]2O)O[C@@H]8COCC(C)O)O[C@@H]7COCC(C)O)O[C@@H]6COCC(C)O)O[C@@H]5COCC(C)O)O[C@@H]4COCC(C)O)O[C@@H]3COCC(C)O` (single isomer, unassigned) [HPBCD-A, hydroxypropyl-beta-cyclodextrin]: the cell viability entry in data set [1] is recorded as “induce cell viability loss”. In the data set on Murine mesangial cells, this compound yielded a cellular cholesterol content of 54.1%. Further, in data set [2], the hemolytic activity result was “disrupt the plasma membrane and induce hemolysis”.
Regarding `CC(O)COC[C@H]1O[C@@H]2O[C@H]3[C@H](O)[C@@H](O)[C@@H](O[C@H]4[C@H](O)[C@@H](O)[C@@H](O[C@H]5[C@H](O)[C@@H](O)[C@@H](O[C@H]6[C@H](O)[C@@H](O)[C@@H](O[C@H]7[C@H](O)[C@@H](O)[C@@H](O[C@H]8[C@H](O)[C@@H](O)[C@@H](O[C@H]1[C@H](O)[C@H]2O)O[C@@H]8COCC(C)O)O[C@@H]7COCC(C)O)O[C@@H]6COCC(C)O)O[C@@H]5COCC(C)O)O[C@@H]4COCC(C)O)O[C@@H]3COCC(C)O` (single isomer, unassigned) [HPBCD-C, hydroxypropyl-beta-cyclodextrin], in data set [1], the cell viability result is “induce cell viability loss”. The same compound showed a cellular cholesterol content with Murine mesangial cells of 50.5%. Moreover, the hemolytic activity entry in data set [2] is “disrupt the plasma membrane and induce hemolysis”.
